The values that follow come from ChEMBL document CHEMBL1122266, “Ring-substituted 1,2-dialkylated 1,2-bis(hydroxyphenyl)ethanes. 1. Synthesis and estrogen receptor binding affinity of 2,2'- and 3,3'-disubstituted hexestrols” (J Med Chem, 1983).

Where “and” joins values, the source holds several entries; their conditions need not be identical. Identical values can stand only once.

The target of assay [1] is Estrogen receptor (Bos taurus) (UniProt Q9XSB5+P49884). As to the kind of experiment: Relative binding affinity for calf uterine estrogen receptor by 17-beta-[3H]-estradiol competition. In kind it is protein assay.
Assay [2] deals with T1, Estrogen receptor (Mus musculus) (UniProt O08537+P19785). As to the kind of experiment: Estrogenic activity in uterotrophic assay in mice at 0.4 ug/day with estrone. It is filed as functional.
T1 sequence (O08537 whole entry, looked up): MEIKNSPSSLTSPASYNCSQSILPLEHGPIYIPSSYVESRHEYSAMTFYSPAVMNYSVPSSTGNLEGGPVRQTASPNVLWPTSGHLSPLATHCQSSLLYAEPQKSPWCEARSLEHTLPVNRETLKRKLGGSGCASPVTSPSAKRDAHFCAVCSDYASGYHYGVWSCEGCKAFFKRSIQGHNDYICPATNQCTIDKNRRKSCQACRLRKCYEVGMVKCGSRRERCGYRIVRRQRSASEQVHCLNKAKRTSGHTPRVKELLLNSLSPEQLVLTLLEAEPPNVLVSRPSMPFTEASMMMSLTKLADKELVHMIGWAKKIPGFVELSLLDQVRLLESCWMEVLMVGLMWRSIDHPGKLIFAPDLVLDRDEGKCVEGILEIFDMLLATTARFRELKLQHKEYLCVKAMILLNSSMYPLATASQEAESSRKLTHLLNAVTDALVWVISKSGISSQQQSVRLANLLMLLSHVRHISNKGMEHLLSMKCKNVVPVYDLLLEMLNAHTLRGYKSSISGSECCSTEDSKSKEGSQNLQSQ
T1 sequence (P19785 whole entry, looked up): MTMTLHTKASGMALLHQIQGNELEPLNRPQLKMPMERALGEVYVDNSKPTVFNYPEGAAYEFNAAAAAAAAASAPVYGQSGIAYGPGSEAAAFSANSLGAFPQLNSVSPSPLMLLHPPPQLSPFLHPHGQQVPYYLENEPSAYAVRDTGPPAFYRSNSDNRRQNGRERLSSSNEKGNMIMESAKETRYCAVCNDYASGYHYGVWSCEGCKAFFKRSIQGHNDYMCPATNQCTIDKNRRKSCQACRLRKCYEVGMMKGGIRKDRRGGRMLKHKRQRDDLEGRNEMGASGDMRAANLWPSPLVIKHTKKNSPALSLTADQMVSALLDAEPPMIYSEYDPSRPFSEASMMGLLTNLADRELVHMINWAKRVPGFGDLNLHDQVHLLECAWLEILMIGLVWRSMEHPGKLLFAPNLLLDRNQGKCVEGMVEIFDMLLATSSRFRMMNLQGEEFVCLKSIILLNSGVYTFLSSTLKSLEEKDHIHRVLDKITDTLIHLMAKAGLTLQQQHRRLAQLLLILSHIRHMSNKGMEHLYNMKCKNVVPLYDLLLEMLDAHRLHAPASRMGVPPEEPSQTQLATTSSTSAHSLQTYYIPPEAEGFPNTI
Assay [3] concerns the target T1, Estrogen receptor (Mus musculus). The assay can be described thus: Inhibition of anti-uterotrophic activity in mice at 25 ug/day (%inhibition=100-(E S,T-EV)x100). In kind it is functional.
Assay [4] has the same target. The assay can be described thus: Estrogenic activity in uterotrophic assay in mice at 0 ug/day. In kind it is functional.
Assay [5] has the same target. As to the kind of experiment: Estrogenic activity in uterotrophic assay in mice at 1 ug/day. In kind it is functional.
Assay [6] has the same target. The assay can be described thus: Estrogenic activity in uterotrophic assay in mice at 100 ug/day. It is filed as functional.
For assay [7] the target is unchanged. The assay can be described thus: Anti-uterotrophic activity in mice at 25 ug/day.
Assay [8] has the same target. The assay can be described thus: Estrogenic activity in uterotrophic assay in mice at 1000 ug/day. In kind it is functional.
The target is the same in assay [9]. As to the kind of experiment: Anti-uterotrophic activity in mice at 0 ug/day. In kind it is functional.
For assay [10] the target is unchanged. The assay can be described thus: Inhibition of anti-uterotrophic activity in mice at 5 ug/day (%inhibition=100-(E S,T-EV)x100). It is filed as functional.
For assay [11] the target is unchanged. As to the kind of experiment: Estrogenic activity in uterotrophic assay in mice at 10 ug/day. It is filed as functional.
The target is the same in assay [12]. The assay can be described thus: Inhibition of anti-uterotrophic activity in mice at 250 ug/day (%inhibition=100-(E S,T-EV)x100). It is filed as functional.
Assay [13] shares this target. As to the kind of experiment: Anti-uterotrophic activity in mice at 5 ug/day. In kind it is functional.
For assay [14] the target is unchanged. The assay can be described thus: Estrogenic activity in uterotrophic assay in mice at 250 ug/day. It is filed as functional.
Assay [15] shares this target. As to the kind of experiment: Estrogenic activity in uterotrophic assay in mice at 50 ug/day. In kind it is functional.
Assay [16] shares this target. The assay can be described thus: Estrogenic activity in uterotrophic assay in mice at 500 ug/day.
The target is the same in assay [17]. The assay can be described thus: Estrogenic activity in uterotrophic assay in mice at 2 ug/day. In kind it is functional.
Assay [18] shares this target. As to the kind of experiment: Anti-uterotrophic activity in mice at 250 ug/day. It is filed as functional.
For assay [19] the target is unchanged. The assay can be described thus: Anti-uterotrophic activity in mice at 100 ug/day. It is filed as functional.
The target is the same in assay [20]. The assay can be described thus: Inhibition of anti-uterotrophic activity in mice at 100 ug/day (%inhibition=100-(E S,T-EV)x100). It is filed as functional.

`CC[C@H](c1ccc(O)cc1)[C@@H](CC)c1ccc(O)cc1` gave a relative binding affinity (RBA) in [1] of 27.
For the compound `CCOCc1cc(C(CC)C(CC)c2ccc(O)c(COCC)c2)ccc1O` (stereo not given), the relative binding affinity (RBA) in assay [1] came to 0.18.
Same read-out and setting: then `CCc1cc(O)ccc1C(CC)C(CC)c1ccc(O)cc1CC` (stereo not given), with 3.7; and `CCC(c1ccc(O)c(Br)c1)C(CC)c1ccc(O)c(Br)c1` (stereo not given), with 0.25; and `CCC(c1ccc(O)c(CN(C)C)c1)C(CC)c1ccc(O)c(CN(C)C)c1` (stereo not given), with 0.04.
With `CCC(c1ccc(O)c([N+](=O)[O-])c1)C(CC)c1ccc(O)c([N+](=O)[O-])c1` (stereo not given), in [1], the relative binding affinity (RBA) was 0.14.
Consider `CCC(c1ccc(O)cc1Br)C(CC)c1ccc(O)cc1Br` (stereo not given), for which the relative binding affinity (RBA) in assay [1] was 1.8.
On the same count and under the same terms, for `CCC(c1ccc(O)c(I)c1)C(CC)c1ccc(O)c(I)c1` (stereo not given) the value was 0.17; for `CCC(c1ccc(O)c(Cl)c1)C(CC)c1ccc(O)c(Cl)c1` (stereo not given), 1.6.
One may read the inhibition as how much of the control response was suppressed. A higher inhibition goes with a response far below the control. Consider `CCC(c1ccc(O)c(N)c1)C(CC)c1ccc(O)c(N)c1` (stereo not given), for which the Effect in [2] was found to be 50.4 mg/100 g; in assay [4], 16.9 mg 100g-1; in assay [5], 23.3 mg 100g-1; in assay [6], 44.7 mg/100 g; in assay [7] it was 34.6 mg 100g-1; in assay [8], 45.6 mg 100g-1. The Effect in assay [9] is 50.4 mg 100g-1 and 19.4 mg 100g-1; in assay [11], 24.3 mg 100g-1. Also, the inhibition was 0% in assay [3] and 78% in [10]. This compound displayed a relative binding affinity (RBA) in assay [1] of 5.6.
Consider `CCC(c1ccc(O)cc1O)C(CC)c1ccc(O)cc1O` (stereo not given), for which the Effect in assay [2] is 51.4 mg 100g-1; in [4], 16.4 mg 100g-1; in assay [5] it was 53.6 mg 100g-1; in [11], 41.6 mg 100g-1. The compound also registered a relative binding affinity (RBA) in assay [1] of 32.
Turning to `CCC(c1ccc(O)c(C)c1)C(CC)c1ccc(O)c(C)c1` (stereo not given), the Effect in assay [2] amounted to 44.9 mg 100g-1; in assay [4] it was 10 mg 100g-1; in assay [5], 48.7 mg 100g-1; in assay [6], 33.8 mg 100g-1; in assay [8], 34 mg 100g-1; in assay [11], 40 mg 100g-1. The relative binding affinity (RBA) in [1] was 8.1.
As to `CCC(c1ccc(O)cc1F)C(CC)c1ccc(O)cc1F` (stereo not given), the Effect in [2] worked out at 43.9 mg 100g-1; in assay [4], 16.9 mg 100g-1; in [5], 47.6 mg 100g-1; in assay [6], 34.3 mg 100g-1; in assay [8] it was 30.5 mg 100g-1; in assay [11], 39 mg 100g-1. The compound also came in with a relative binding affinity (RBA) in [1] of 6.5.
In the case of `CCC(c1ccc(O)c(N(C)C)c1)C(CC)c1ccc(O)c(N(C)C)c1` (stereo not given), in assay [1], the relative binding affinity (RBA) was < 0.01.
`CCC(c1ccc(O)c(F)c1)C(CC)c1ccc(O)c(F)c1` (stereo not given): the Effect is 44.9 mg 100g-1 in assay [2]; 10 mg 100g-1 in [4]; 50.7 mg 100g-1 in [5]; 40.4 mg 100g-1 in assay [6]; 38.8 mg 100g-1 in assay [8]; 43.4 mg 100g-1 in assay [11]. The compound further had a relative binding affinity (RBA) in assay [1] of 16.
The compound `CCC(c1ccc(O)c(CO)c1)C(CC)c1ccc(O)c(CO)c1` (stereo not given) had a relative binding affinity (RBA) in [1] of 0.71.
The compound `CCC(c1ccc(O)cc1Cl)C(CC)c1ccc(O)cc1Cl` (stereo not given) came in with a relative binding affinity (RBA) in [1] of 2.2.
Consider `CCC(c1ccc(O)c(O)c1)C(CC)c1ccc(O)c(O)c1` (stereo not given), for which the inhibition amounted to 0% in assay [12], 20% in assay [3], 13% in [20] and 59% in assay [10]. In addition, the Effect in assay [2] was 54.3 mg 100g-1; in [4], 15.4 mg 100g-1; in assay [13], 24.1 mg 100g-1; in [14], 50.1 mg 100g-1; in assay [15], 39.1 mg 100g-1; in assay [16], 49.8 mg 100g-1. Also, the Effect in assay [17] amounted to 24.6 mg 100g-1; in [18], 43.6 mg 100g-1; in assay [7] it was 37 mg 100g-1; in assay [19] it was 39.2 mg 100g-1; in assay [11], 34.7 mg 100g-1. The relative binding affinity (RBA) in [1] stood at 20.
On to `CCC(c1ccc(O)cc1C)C(CC)c1ccc(O)cc1C` (stereo not given), for which the Effect in [2] worked out at 43.9 mg 100g-1; in assay [4], 16.9 mg 100g-1; in assay [5], 46.3 mg 100g-1; in [6] it was 38.4 mg 100g-1; in assay [8] it was 32.6 mg 100g-1; in assay [11], 36.6 mg 100g-1. The same compound had a relative binding affinity (RBA) in [1] of 8.5.
As for `CCc1cc(C(CC)C(CC)c2ccc(O)c(CC)c2)ccc1O` (stereo not given), the relative binding affinity (RBA) in assay [1] worked out at 1.2.
The same measure, in the same setting: then `CCC(c1ccc(O)c(COC)c1)C(CC)c1ccc(O)c(COC)c1` (stereo not given), with 0.55; and `CCC(c1ccc(O)c(C(C)=O)c1)C(CC)c1ccc(O)c(C(C)=O)c1` (stereo not given), with < 0.01.
